Patent EP4483954A1 (Masarykova Univerzita, priority 2023, dated 2025)

Target: T1, Haspin (h) (Homo sapiens, UniProt Q8TF76)
T1 construct: purchased Eurofins (KinaseProfiler)
T1 sequence (Q8TF76 1-798): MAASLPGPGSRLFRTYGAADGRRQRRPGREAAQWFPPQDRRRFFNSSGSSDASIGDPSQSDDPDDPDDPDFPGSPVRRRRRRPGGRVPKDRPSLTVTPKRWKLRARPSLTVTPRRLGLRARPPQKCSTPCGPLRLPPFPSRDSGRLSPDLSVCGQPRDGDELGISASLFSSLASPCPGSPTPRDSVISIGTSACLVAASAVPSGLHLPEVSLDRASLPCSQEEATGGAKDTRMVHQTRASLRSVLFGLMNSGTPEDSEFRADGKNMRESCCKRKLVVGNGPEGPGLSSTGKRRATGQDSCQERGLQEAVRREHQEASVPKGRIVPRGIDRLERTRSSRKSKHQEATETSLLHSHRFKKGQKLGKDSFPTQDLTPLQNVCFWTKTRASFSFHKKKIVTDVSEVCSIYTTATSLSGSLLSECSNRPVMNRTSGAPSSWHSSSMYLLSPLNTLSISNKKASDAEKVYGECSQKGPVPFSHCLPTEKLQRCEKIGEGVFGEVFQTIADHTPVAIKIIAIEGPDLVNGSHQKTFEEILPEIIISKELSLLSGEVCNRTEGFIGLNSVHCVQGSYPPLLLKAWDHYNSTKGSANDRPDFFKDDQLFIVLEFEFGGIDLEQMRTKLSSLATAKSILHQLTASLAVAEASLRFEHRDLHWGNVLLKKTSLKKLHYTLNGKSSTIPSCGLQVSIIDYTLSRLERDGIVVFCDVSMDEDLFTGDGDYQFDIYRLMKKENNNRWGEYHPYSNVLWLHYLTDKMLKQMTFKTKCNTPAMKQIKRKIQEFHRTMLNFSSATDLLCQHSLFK
Test: radiometric kinase assay (KinaseProfiler, Eurofins), Haspin
Type: biochemical
Settings: in vitro radiometric kinase assay, tested at 1 nM to 10 000 nM, no pre-incubation; read-out: inhibitory activities (IC50 values) Haspin
Description: The compounds were profiled in the radiometric assays (KinaseProfiler, Eurofins).
Briefly, kinases were diluted in the buffer shown below prior to addition to the reaction mix: • CDKL3, TAF1L: 20 mM Tris/HCl pH 8.5, 0.2 mM EDTA, 0.1% β-mercaptoethanol, 0.01% Brij-35, 5% glycerol, 1 mg/ml BSA; • Haspin: 15 mM MOPS, 0.75 mM EDTA, 0.0075% Brij-35, 3.75% Glycerol, 150 mM NaCl, 0.1% β-mercaptoethanol, 1 mg/mLBSA; • CDKL4, CLK2, PIM1, TRB2: […], 1 mM EDTA, 0.01% Brij-35, 5% Glycerol, 0.1% β-mercaptoethanol, 1 mg/mL BSA.
All compounds were prepared to 50x final assay concentration in 100% DMSO. This working stock of the compound was added to the assay well as the first component in the reaction, followed by the remaining components as detailed in the general assay protocols below. There was no pre-incubation step between the compound and the kinase prior to initiation of the reaction.
Haspin (h) was incubated with 8 mM MOPS pH 7.0, 0.2 mM EDTA, 500 µM RARTLSFAEPG (SEQ ID NO. 3), 10 mM magnesium acetate and γ-^33P-ATP (specific activity and concentration as required). The reaction was initiated by the addition of the Mg/ATP mix. After incubation for 40 minutes at room temperature, the reaction was stopped by the addition of phosphoric acid to a concentration of 0.5%. An aliquot of the reaction was then spotted onto a filter and washed four times for 4 minutes in 0.425% phosphoric acid and once in methanol prior to drying and scintillation counting.
Kinase activity data were expressed as the percent remaining kinase activity in tested samples compared to the vehicle (DMSO) reactions. The compounds were tested at the following concentrations: 1 nM, 3 nM, 10 nM, 30 nM, 100 nM, 300 nM, 1000 nM, 3000 nM, and 10 000 nM; IC50 values and curve fits were then obtained.

| IC50 [nM] | Structure (SMILES) |
| --- | --- |
| 100 to 499 | c1ccc(-c2ccc3scc(-c4ccncc4)c3n2)nc1 [Preparative Example 111, 5-(pyridin-2-yl)-3-(pyridin-4-yl)thieno[3,2-b]pyridine] |
| 500 to 3000 | CN(c1ccc2scc(-c3ccncc3)c2n1)c1ccn(C)n1 [Preparative Example 100, N-methyl-N-(1-methyl-1H-pyrazol-3-yl)-3-(pyridin-4-yl)thieno[3,2-b]pyridin-5-amine] |
| 500 to 3000 | c1cc(-c2csc3ccc(-c4ccns4)nc23)ccn1 [Preparative Example 92, 5-(isothiazol-5-yl)-3-(pyridin-4-yl)thieno[3,2-b]pyridine] |
| 3000 to 10000 | Cn1nc(Nc2ccc3scc(-c4ccncc4)c3n2)cc1NC(=O)OC(C)(C)C [Preparative Example 103, tert-butyl (1-methyl-3-((3-(pyridin-4-yl)thieno[3,2-b]pyridin-5-yl)-amino)-1H-pyrazol-5-yl)carbamate] |
| 100 to 499 | c1nc2ccc(-c3csc4ccc(Nc5cn[nH]c5)nc34)cn2n1 [Preparative Example 134, 3-([1,2,4]triazolo[1,5-a]pyridin-6-yl)-N-(1H-pyrazol-4-yl)thieno[3,2-b]pyridin-5-amine] |
| 20 to 99 | Cn1cc(-c2ccc3scc(-c4ccc5nccn5c4)c3n2)cn1 [Preparative Example 57, 3-(imidazo[1,2-a]pyridin-6-yl)-5-(1-methyl-1H-pyrazol-4-yl)thieno[3,2-b]pyridine] |
| 100 to 499 | Cn1ccc(Oc2ccc3scc(-c4ccncc4)c3n2)n1 [Preparative Example 110, 5-((1-methyl-1H-pyrazol-3-yl)oxy)-3-(pyridin-4-yl)thieno[3,2-b]pyridine] |
| 500 to 3000 | Cc1sc2ccc(-c3ccn(C)n3)nc2c1-c1ccncc1 [Preparative Example 143, 2-methyl-5-(1-methyl-1H-pyrazol-3-yl)-3-(pyridin-4-yl)thieno[3,2-b]pyridine] |
| 500 to 3000 | c1cnc(-c2ccc3scc(-c4ccc5ncnn5c4)c3n2)nc1 [Preparative Example 130, 3-([1,2,4]triazolo[1,5-a]pyridin-6-yl)-5-(pyrimidin-2-yl)thieno[3,2-b]pyridine] |
| 100 to 499 | Cn1cc(-c2ccc3scc(-c4ccnc5[nH]ccc45)c3n2)cn1 [Preparative Example 45, 5-(1-methyl-1H-pyrazol-4-yl)-3-(1H-pyrrolo[2,3-b]pyridin-4-yl)thieno[3,2-b]pyridine] |
| 3000 to 10000 | c1cnc(-c2ccc3scc(-c4ccncc4)c3n2)nc1 [Preparative Example 112, 3-(pyridin-4-yl)-5-(pyrimidin-2-yl)thieno[3,2-b]pyridine] |
| 100 to 499 | Cc1cc(Nc2ccc3scc(-c4ccncc4)c3n2)nn1C [Preparative Example 102, N-(1,5-dimethyl-1H-pyrazol-3-yl)-3-(pyridin-4-yl)thieno[3,2-b]pyridin-5-amine] |
| 500 to 3000 | c1ccc(Cn2ccc(-c3ccc4scc(-c5ccncc5)c4n3)n2)cc1 [Preparative Example 89, 5-(1-benzyl-1H-pyrazol-3-yl)-3-(pyridin-4-yl)thieno[3,2-b]pyridine] |
| 20 to 99 | Cn1cc(C#N)c(Nc2ccc3scc(-c4ccns4)c3n2)n1 [Preparative Example 120, 3-((3-(isothiazol-5-yl)thieno[3,2-b]pyridin-5-yl)amino)-1-methyl-1H-pyrazole-4-carbonitrile] |
| 500 to 3000 | Cn1ccc(Nc2ccc3scc(-c4ccc5nncn5c4)c3n2)n1 [Preparative Example 135, 3-([1,2,4]triazolo[4,3-a]pyridin-6-yl)-N-(1-methyl-1H-pyrazol-3-yl)thieno[3,2-b]pyridin-5-amine] |
| 3000 to 10000 | CCOC(=O)c1cc(Nc2ccc3scc(-c4ccncc4)c3n2)nn1C [Preparative Example 105, Ethyl 1-methyl-3-((3-(pyridin-4-yl)thieno[3,2-b]pyridin-5-yl)amino)-1H-pyrazole-5-carboxylate] |
| 100 to 499 | Cn1ccc(-c2ccc3scc(-c4ccns4)c3n2)n1 [Preparative Example 119, 3-(isothiazol-5-yl)-5-(1-methyl-1H-pyrazol-3-yl)thieno[3,2-b]pyridine] |
| 100 to 499 | c1cncc(-c2ccc3scc(-c4ccc5ncnn5c4)c3n2)c1 [Preparative Example 131, 3-([1,2,4]triazolo[1,5-a]pyridin-6-yl)-5-(pyridin-3-yl)thieno[3,2-b]pyridine] |
| 3000 to 10000 | Cn1ccc(CNc2ccc3scc(-c4ccncc4)c3n2)n1 [Preparative Example 108, N-((1-methyl-1H-pyrazol-3-yl)methyl)-3-(pyridin-4-yl)thieno[3,2-b]pyridin-5-amine] |
| 100 to 499 | c1ccc(-c2csc3ccc(-c4cn[nH]c4)nc23)cc1 [Preparative Example 121, 3-phenyl-5-(1H-pyrazol-4-yl)thieno[3,2-b]pyridine] |
| 100 to 499 | CSc1cn(C)nc1Nc1ccc2scc(-c3ccncc3)c2n1 [Preparative Example 106, N-(1-methyl-4-(methylthio)-1H-pyrazol-3-yl)-3-(pyridin-4-yl)thieno[3,2-b]pyridin-5-amine] |
| 100 to 499 | Cn1cc(-c2ccc3scc(-c4cc5ncccn5n4)c3n2)cn1 [Preparative Example 61, 5-(1-methyl-1H-pyrazol-4-yl)-3-(pyrazolo[1,5-a]pyrimidin-2-yl)thieno[3,2-b]pyridine] |
| 500 to 3000 | c1cc(-c2csc3ccc(Nc4ccncn4)nc23)ccn1 [Preparative Example 114, 3-(pyridin-4-yl)-N-(pyrimidin-4-yl)thieno[3,2-b]pyridin-5-amine] |
| 100 to 499 | Cn1cc(-c2ccc3scc(-c4ccc(F)cc4)c3n2)cn1 [Preparative Example 6, 3-(4-fluorophenyl)-5-(1-methyl-1H-pyrazol-4-yl)-thieno[3,2-b]pyridine] |
| 3000 to 10000 | Cn1ncnc1-c1ccc2scc(-c3ccncc3)c2n1 [Preparative Example 96, 5-(1-methyl-1H-1,2,4-triazol-5-yl)-3-(pyridin-4-yl)thieno[3,2-b]pyridine] |
| 3000 to 10000 | COC(=O)c1cn(C)nc1Nc1ccc2scc(-c3ccnc(CN)c3)c2n1 [Preparative Example 128, Methyl 3-((3-(2-(aminomethyl)pyridin-4-yl)thieno[3,2-b]pyridin-5-yl)amino)-1-methyl-1H-pyrazole-4-carboxylate] |
| 3000 to 10000 | CC(C)(C)OC(=O)N1CCOC(COc2ccc3scc(-c4ccncc4)c3n2)C1 (stereo not shown) [Preparative Example 116, tert-butyl 2-(((3-(pyridin-4-yl)thieno[3,2-b]pyridin-5-yl)oxy)-methyl)morpholine-4-carboxylate] |
| 20 to 99 | c1cc(-c2ccc3scc(-c4ccc5ncnn5c4)c3n2)ccn1 [Preparative Example 132, 3-([1,2,4]triazolo[1,5-a]pyridin-6-yl)-5-(pyridin-4-yl)thieno[3,2-b]pyridine] |
| 3000 to 10000 | CCOC(=O)c1cn(C)nc1Nc1ccc2scc(-c3ccncc3)c2n1 [Preparative Example 107, Ethyl 1-methyl-3-((3-(pyridin-4-yl)thieno[3,2-b]pyridin-5-yl)amino)-1H-pyrazole-4-carboxylate] |
| 20 to 99 | Cn1cc(-c2ccc3scc(-c4ccc5nccnc5c4)c3n2)cn1 [Preparative Example 49, 5-(1-methyl-1H-pyrazol-4-yl)-3-(quinoxalin-6-yl)thieno[3,2-b]pyridine] |

| Structure (SMILES) | IC50 [nM] |
| --- | --- |
| CCOC(=O)c1cn(C)nc1Nc1ccc2scc(-c3ccnc(NC(=O)OC(C)(C)C)c3)c2n1 [Preparative Example 126, Ethyl 3-((3-(2-((tert-butoxycarbonyl)amino)pyridin-4-yl)thieno[3,2-b]pyridin-5-yl)amino)-1-methyl-1H-pyrazole-4-carboxylate] | 3000 to 10000 |
